ChEMBL document CHEMBL3885881, “DrugMatrix”

Organism: Rattus norvegicus
Assay: DrugMatrix - Regimen: Daily Repeat
Format: toxicity, organism-based, Sprague-Dawley
Parameters: regimen Daily Repeat, gender Male, age 6-8 weeks
Details: in vivo, sc, route subcutaneous, […]; for ABSOLUTE BASOPHIL / ABSOLUTE EOSINOPHIL / ABSOLUTE LYMPHOCYTE / ABSOLUTE MONOCYTE / ABSOLUTE SEGMENTED NEUTROPHIL / BASOPHIL / EOSINOPHIL / ERYTHROCYTE COUNT / HEMATOCRIT / HEMOGLOBIN / LEUKOCYTE COUNT / LYMPHOCYTE / MEAN CORPUSCULAR HEMOGLOBIN / MEAN CORPUSCULAR HEMOGLOBIN CONCENTRATION / MEAN CORPUSCULAR VOLUME / MONOCYTE / NEUTROPHIL / NUCLEATED RED BLOOD CELLS / PLATELET COUNT: tissue Blood; for ALANINE AMINOTRANSFERASE / ALBUMIN / ALKALINE PHOSPHATASE / ASPARTATE AMINOTRANSFERASE / BLOOD UREA NITROGEN / CARBON DIOXIDE / CHLORIDE / CHOLESTEROL / CREATINE PHOSPHOKINASE / CREATININE / GLUCOSE / LACTATE DEHYDROGENASE / LIPASE / PHOSPHORUS / POTASSIUM / SODIUM / TOTAL BILIRUBIN / TOTAL PROTEIN / URIC ACID: tissue Plasma
[1] = 0 mg/kg, 72 h, dose level Control, time 3 day
[2] = 0 mg/kg, 120 h, dose level Control, time 5 day
[3] = 18 mg/kg, 72 h, dose level High, time 3 day

SMILES: CN(C)c1ccc(C(=C2C=CC(=[N+](C)C)C=C2)c2ccc(N(C)C)cc2)cc1.[Cl-] [GENTIAN VIOLET]
- ABSOLUTE BASOPHIL [1]: 0 CELLS/uL
- ABSOLUTE EOSINOPHIL [1]: 92.33 CELLS/uL
- ABSOLUTE LYMPHOCYTE [1]: 12247.5 CELLS/uL
- ABSOLUTE MONOCYTE [1]: 389.67 CELLS/uL
- ABSOLUTE SEGMENTED NEUTROPHIL [1]: 1320.5 CELLS/uL
- BASOPHIL [1]: 0%
- EOSINOPHIL [1]: 0.67%
- ERYTHROCYTE COUNT [1]: 5.45 x10E6/uL
- HEMATOCRIT [1]: 34.85%
- HEMOGLOBIN [1]: 12.97 G/DL
- LEUKOCYTE COUNT [1]: 14.05 x10E3/uL
- LYMPHOCYTE [1]: 87.33%
- MEAN CORPUSCULAR HEMOGLOBIN [1]: 23.78 pg
- MEAN CORPUSCULAR HEMOGLOBIN CONCENTRATION [1]: 37.22 G/DL
- MEAN CORPUSCULAR VOLUME [1]: 63.93 fL
- MONOCYTE [1]: 2.67%
- NEUTROPHIL [1]: 9.33%
- NUCLEATED RED BLOOD CELLS [1]: 0 /100WBC
- PLATELET COUNT [1]: 1174 x10E3/uL
- ALANINE AMINOTRANSFERASE [1]: 48.83 u/L
- ALBUMIN [1]: 4.23 G/DL
- ALKALINE PHOSPHATASE [1]: 351.5 u/L
- ASPARTATE AMINOTRANSFERASE [1]: 90 u/L
- BLOOD UREA NITROGEN [1]: 15.33 mg/dL
- CARBON DIOXIDE [1]: 23 mmol/L
- CHLORIDE [1]: 103.5 MEQ/L
- CHOLESTEROL [1]: 70.5 mg/dL
- CREATINE PHOSPHOKINASE [1]: 651.83 u/L
- CREATININE [1]: 0.22 mg/dL
- GLUCOSE [1]: 180.67 mg/dL
- LACTATE DEHYDROGENASE [1]: 165 u/L
- LIPASE [1]: 9.33 u/L
- PHOSPHORUS [1]: 12.03 mg/dL
- POTASSIUM [1]: 6.17 MEQ/L
- SODIUM [1]: 142.62 MEQ/L
- TOTAL BILIRUBIN [1]: 0.2 mg/dL
- TOTAL PROTEIN [1]: 5.73 G/DL
- URIC ACID [1]: 1.77 mg/dL
- ABSOLUTE BASOPHIL [2]: 0 CELLS/uL
- ABSOLUTE EOSINOPHIL [2]: 0 CELLS/uL
- ABSOLUTE LYMPHOCYTE [2]: 12736.67 CELLS/uL
- ABSOLUTE MONOCYTE [2]: 253.5 CELLS/uL
- ABSOLUTE SEGMENTED NEUTROPHIL [2]: 1193.17 CELLS/uL
- BASOPHIL [2]: 0%
- EOSINOPHIL [2]: 0%
- ERYTHROCYTE COUNT [2]: 5.72 x10E6/uL
- HEMATOCRIT [2]: 36.05%
- HEMOGLOBIN [2]: 13.62 G/DL
- LEUKOCYTE COUNT [2]: 14.18 x10E3/uL
- LYMPHOCYTE [2]: 89.33%
- MEAN CORPUSCULAR HEMOGLOBIN [2]: 23.83 pg
- MEAN CORPUSCULAR HEMOGLOBIN CONCENTRATION [2]: 37.8 G/DL
- MEAN CORPUSCULAR VOLUME [2]: 63.05 fL
- MONOCYTE [2]: 1.83%
- NEUTROPHIL [2]: 8.83%
- NUCLEATED RED BLOOD CELLS [2]: 0 /100WBC
- PLATELET COUNT [2]: 1322.17 x10E3/uL
- ALANINE AMINOTRANSFERASE [2]: 48.83 u/L
- ALBUMIN [2]: 4.27 G/DL
- ALKALINE PHOSPHATASE [2]: 295.17 u/L
- ASPARTATE AMINOTRANSFERASE [2]: 75.83 u/L
- BLOOD UREA NITROGEN [2]: 15.5 mg/dL
- CARBON DIOXIDE [2]: 30.5 mmol/L
- CHLORIDE [2]: 102.33 MEQ/L
- CHOLESTEROL [2]: 76.17 mg/dL
- CREATINE PHOSPHOKINASE [2]: 205.5 u/L
- CREATININE [2]: 0.2 mg/dL
- GLUCOSE [2]: 149.67 mg/dL
- LACTATE DEHYDROGENASE [2]: 124.5 u/L
- LIPASE [2]: 10 u/L
- PHOSPHORUS [2]: 10.93 mg/dL
- POTASSIUM [2]: 6.59 MEQ/L
- SODIUM [2]: 143.1 MEQ/L
- TOTAL BILIRUBIN [2]: 0.2 mg/dL
- TOTAL PROTEIN [2]: 6.05 G/DL
- URIC ACID [2]: 1.45 mg/dL
- ABSOLUTE BASOPHIL [3]: 0 CELLS/uL
- ABSOLUTE EOSINOPHIL [3]: 0 CELLS/uL
- ABSOLUTE LYMPHOCYTE [3]: 12052.33 CELLS/uL
- ABSOLUTE MONOCYTE [3]: 236.33 CELLS/uL
- ABSOLUTE SEGMENTED NEUTROPHIL [3]: 1544.67 CELLS/uL
- BASOPHIL [3]: 0%
- EOSINOPHIL [3]: 0%
- ERYTHROCYTE COUNT [3]: 5.45 x10E6/uL
- HEMATOCRIT [3]: 33.5%
- HEMOGLOBIN [3]: 12.27 G/DL
- LEUKOCYTE COUNT [3]: 13.83 x10E3/uL
- LYMPHOCYTE [3]: 87%
- MEAN CORPUSCULAR HEMOGLOBIN [3]: 22.5 pg
- MEAN CORPUSCULAR HEMOGLOBIN CONCENTRATION [3]: 36.67 G/DL
- MEAN CORPUSCULAR VOLUME [3]: 61.5 fL
- MONOCYTE [3]: 1.67%
- NEUTROPHIL [3]: 11.33%
- NUCLEATED RED BLOOD CELLS [3]: 0 /100WBC
- PLATELET COUNT [3]: 1084 x10E3/uL
- ALANINE AMINOTRANSFERASE [3]: 34.67 u/L
- ALBUMIN [3]: 2.67 G/DL
- ALKALINE PHOSPHATASE [3]: 220 u/L
- ASPARTATE AMINOTRANSFERASE [3]: 68.67 u/L
- BLOOD UREA NITROGEN [3]: 12 mg/dL
- CARBON DIOXIDE [3]: 19 mmol/L
- CHLORIDE [3]: 103.5 MEQ/L
- CHOLESTEROL [3]: 66.33 mg/dL
- CREATINE PHOSPHOKINASE [3]: 157.33 u/L
- CREATININE [3]: 0.17 mg/dL
- GLUCOSE [3]: 122.33 mg/dL
- LACTATE DEHYDROGENASE [3]: 148 u/L
- LIPASE [3]: 7.33 u/L
- PHOSPHORUS [3]: 8.5 mg/dL
- POTASSIUM [3]: 6.06 MEQ/L
- SODIUM [3]: 145.95 MEQ/L
- TOTAL BILIRUBIN [3]: 0.13 mg/dL
- TOTAL PROTEIN [3]: 4.7 G/DL
- URIC ACID [3]: 1.1 mg/dL
